According to patent publication US12128035B2, “Activating pyruvate kinase R” (Novo Nordisk Health Care AG, priority 2021, dated 2024):
“And” between values parts separate entries of the source, which are not always exact repeats. Equal values may be shown once.

How the values were obtained:
[1] = Phase 1 SAD/MAD: safety (adverse events) in healthy volunteers; type: in vivo, human
Experimental: In this study, SAD/MAD cohorts are randomized (3 to 1) to receive Compound 1 or placebo (P). Compound 1 was evaluated first in 4 healthy SAD cohorts and 4 healthy MAD (14-day dosing period) cohorts. Based on the safety, and PK/PD profile from HS, Compound 1 is then evaluated in 1 SCD SAD cohort and 2 SCD MAD cohorts. Specifically, based on the safety and pharmacokinetic/pharmacodynamics (PK/PD) profile in healthy volunteer studies, Compound 1 is evaluated in patients (pts) with SCD, first in a single dose (SD or SAD) cohort and then in multiple-dose (MD or MAD) cohorts (14-day and 12-week). Safety assessments include AEs, vital signs, ECGs and laboratory parameters. PK/PD blood sampling was performed on Day 1 (SAD/MAD) and Day 14 (MAD) and up to 72 h after the last dose and at the end-of-study visit. PD parameters included 2,3-DPG, ATP, and p50 in all cohorts with additional PD studies (including oxygen scan) performed only in the SCD cohorts. PD parameters included 2,3-DPG, ATP, p50, RBC deformability with controlled deoxygenation and reoxygenation (Lorrca® oxygen scan) and varying osmolality (Lorrca® osmoscan)). To maintain study blind, pt identifiers were removed when needed.
Outcome Measures Primary Outcome Measures: • 1. Incidence, frequency, and severity of adverse events (AEs) per CTCAE v5.0 of a single ascending dose and multiple ascending doses of Compound 1 in adult healthy volunteers and SCD patients. Incidence of abnormal laboratory test results (clinical chemistry, endocrine hematology, urinalysis). Change from baseline in vital signs (blood pressure, respiratory rate, heart rate, and oral temperature). Incidence of treatment-emergent clinically significant abnormal findings in ECGs. • [Time Frame: Up to 3 weeks of monitoring] • 2. […] Area under the plasma concentration-time curve from time zero until the 24-hour time point (AUC0-24) • [Time Frame: Up to 3 weeks of testing] • 5. Area under the plasma concentration-time curve from time zero until last quantifiable time point (AUC0-last) • [Time Frame: Up to 3 weeks of testing] • 6. Area under the plasma concentration-time curve from time zero to infinity (AUC0-inf) • [Time Frame: Up to 3 weeks of testing] • 7. […] Apparent volume of distribution (Vd/F) • [Time Frame: Up to 3 weeks of testing] • 10. Terminal disposition rate constant (Lz) • [Time Frame: Up to 3 weeks of testing] • 11. […] Secondary Outcome Measures: • 12. Change from baseline in the levels of 2,3-diphosphoglycerate (DPG) and adenosine triphosphate (ATP) in the red blood cells (RBCs) of healthy volunteers and SCD patients after single and multiple doses of Compound 1. • [Time Frame: Up to 3 weeks of testing] • 13. […] Change from baseline heart rate after a single dose of Compound 1 in healthy volunteers and/or SCD subjects • [Time Frame: up to 7 days] • 15. Change from baseline PR after a single dose of Compound 1 in healthy volunteers and/or SCD subjects • [Time Frame: up to 7 days] • 16. Change from baseline QRS (AHR, APR, and AQRS) after a single dose of Compound 1 in healthy volunteers and/or SCD subjects • [Time Frame: up to 7 days] • 17. Change from baseline T-wave morphology after a single dose of Compound 1 in healthy volunteers and/or SCD subjects • [Time Frame: up to 7 days] Exploratory Outcome Measures: • 18. Effect of food on Cmax, AUC0-24/AUClast • 19. Effect of AUClast/AUC0-24, Cmax, minimum plasma concentration (Cmin), peak-to trough ratio, dose linearity, accumulation ratio on safety, PD, and hematologic parameters of interest, as assessed by exposure-response analyses • 20. Effect of 2,3-DPG reduction in RBCs on the oxyhemoglobin dissociation curve (p50; partial pressure of O2 at which 50% of hemoglobin is saturated with O2) after a single dose and after chronic dosing of Compound 1 • 21. Effect of chronic Compound 1 dosing on normal and SCD RBC deformability by osmotic gradient ektacytometry and oxygen gradient ektacytometry • 22. […]

[2] = biological target: T1, PKR in mouse red blood cells (Mus musculus, UniProt P53657); assay: Cell assay: PKR activation in mouse RBCs; type: cell-based
T1 construct: endogenous in cells; host or cells: mouse RBCs freshly isolated from whole blood
T1 sequence (P53657 whole entry): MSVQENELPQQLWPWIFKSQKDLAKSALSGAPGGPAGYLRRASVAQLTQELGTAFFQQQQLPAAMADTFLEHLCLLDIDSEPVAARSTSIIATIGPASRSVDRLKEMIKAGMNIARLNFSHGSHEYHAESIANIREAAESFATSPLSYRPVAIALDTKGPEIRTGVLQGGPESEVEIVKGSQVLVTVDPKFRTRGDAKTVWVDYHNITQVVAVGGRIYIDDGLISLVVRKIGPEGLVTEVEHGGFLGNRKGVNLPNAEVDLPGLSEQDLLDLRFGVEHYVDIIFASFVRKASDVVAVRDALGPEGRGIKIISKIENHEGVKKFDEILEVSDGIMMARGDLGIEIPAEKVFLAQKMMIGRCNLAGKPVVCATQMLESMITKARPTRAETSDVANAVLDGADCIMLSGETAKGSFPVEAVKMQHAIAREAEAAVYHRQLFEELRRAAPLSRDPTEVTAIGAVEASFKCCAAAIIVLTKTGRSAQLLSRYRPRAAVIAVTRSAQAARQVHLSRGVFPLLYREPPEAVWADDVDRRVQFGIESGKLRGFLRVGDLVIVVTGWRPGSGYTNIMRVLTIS
Text: Mouse RBCs were isolated fresh from whole blood using a Ficoll gradient and assayed with methods similar to those used in the human RBCs assays.

[3] = test system: Red blood cells from SCD patients; assay: Ex vivo Hgb oxygen equilibrium curves in SCD RBCs; type: cell-based, human; settings: 10 μM
Experimental: Red blood cells from SCD patients were used to evaluate the effects of Compound 1 on Hgb affinity for oxygen (i.e., oxygen affinity) and sickling under hypoxic conditions. Cells were incubated at 37° C. for 1, 2, and 3 hr with HEPES buffered saline (HBS) (untreated), HBS+dimethyl sulfoxide (DMSO) (vehicle), or 10 μM Compound 1. To assess oxygen dissociation, Hgb oxygen equilibrium curves were collected during deoxygenation.

[4] = biological target: T2, wt-PKR in mature human erythrocytes (Homo sapiens, UniProt P30613); assay: Cell assay: PKR activation in human RBCs (Biovision Pyruvate Kinase Assay); type: cell-based; settings: 3 hr treatment
T2 construct: host or cells: purified human RBCs from donors
T2 sequence (P30613 whole entry): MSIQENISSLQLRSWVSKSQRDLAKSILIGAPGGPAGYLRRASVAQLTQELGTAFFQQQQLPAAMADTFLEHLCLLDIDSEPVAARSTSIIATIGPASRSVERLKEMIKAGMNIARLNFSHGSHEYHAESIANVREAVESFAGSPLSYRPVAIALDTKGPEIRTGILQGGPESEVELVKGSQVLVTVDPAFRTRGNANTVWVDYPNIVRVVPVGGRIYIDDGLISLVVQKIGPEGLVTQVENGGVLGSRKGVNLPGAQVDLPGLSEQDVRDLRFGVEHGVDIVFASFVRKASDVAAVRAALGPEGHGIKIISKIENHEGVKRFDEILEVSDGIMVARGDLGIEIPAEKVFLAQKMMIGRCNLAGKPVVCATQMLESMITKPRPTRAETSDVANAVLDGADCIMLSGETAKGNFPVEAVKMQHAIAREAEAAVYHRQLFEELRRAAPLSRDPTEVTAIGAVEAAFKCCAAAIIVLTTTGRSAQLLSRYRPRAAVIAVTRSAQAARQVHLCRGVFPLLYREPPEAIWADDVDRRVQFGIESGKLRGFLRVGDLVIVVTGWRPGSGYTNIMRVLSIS
Experimental: The activation of wt-PKR by Compound 1 in mature human erythrocytes ex vivo was evaluated in purified RBCs purchased from Research Blood Components. Cells treated with Compound 1 for 3 hr in glucose-containing media were washed, lysed, and assayed using a Biovision Pyruvate Kinase Assay (K709-100). The assay was repeated multiple times to account for donor-to-donor variability and the relatively narrow dynamic range.

Q: Which “Grade 1 headache (most common AE)” value ([1]; HS receiving 14 days) does the source give for O=C([C@H](CO)c1ccccc1)N1CC2=C(C1)CN(S(=O)(=O)c1cnc3c(c1)OCCO3)C2 (single isomer, unassigned) [Compound 1] here?
A: 28%

Q: And the “Grade 1 headache (most common AE)” value ([1]; HS receiving a single dose)?
A: 4%

Q: And the “Any TEAE, n (%)” value ([1]; HV MAD Compound 1 N = 36)?
A: 15 (42) n (%)

Q: What about the “Any grade 3 or greater TEAE, n (%)” value ([1]; HV MAD Compound 1 N = 36) of the same molecule?
A: 0 n (%)

Q: What about the “Drug interruption, reduction, or discontinuation due to TEAE, n (%)” value ([1]; HV MAD Compound 1 N = 36) of the same molecule?
A: 0 n (%)

Q: What about the “related TEAE of grade 2 or less: headache” value ([1]; HV MAD cohorts) of the same molecule?
A: 4 n

Q: What about the “related TEAE of grade 2 or less: palpitations” value ([1]; HV MAD cohorts) of the same molecule?
A: 1 n

Q: And the “related TEAE of grade 2 or less: somnolence” value ([1]; HV MAD cohorts)?
A: 1 n

Q: And the “Any TEAE, n (%)” value ([1]; HV SAD Compound 1 N = 24)?
A: 5 (21) n (%)

Q: And the “Any grade 3 or greater TEAE, n (%)” value ([1]; HV SAD Compound 1 N = 24)?
A: 1 (4) n (%)

Q: And the “Drug interruption, reduction, or discontinuation due to TEAE, n (%)” value ([1]; HV SAD Compound 1 N = 24)?
A: 0 n (%)

Q: And the “related TEAE of grade 2 or less: headache” value ([1]; HV SAD cohorts)?
A: 1 n

Q: And the “related TEAE of grade 2 or less: transient ventricular tachycardia” value ([1]; HV SAD cohorts)?
A: 1 n

Q: And the “serious adverse events / AEs leading to withdrawal” value ([1]; SAD and MAD cohorts of healthy volunteers)?
A: No serious adverse events (SAEs) or AEs leading to withdrawal were reported

Q: What about the “Max − Min (%), Mean” value ([2]; mean of replicates) of the same molecule?
A: <100%

Q: What about the “Max − Min (%)” value ([2]; single replicates) of the same molecule?
A: <50% and <100%

Q: What about the “Hgb saturation higher compared to DMSO-treated cells” value ([3]; 2 hr) of the same molecule?
A: approximately 10%

Q: And the p50 ([3]; after 1 hr, shifted from 29 mmHg)?
A: 25 mmHg

Q: What about the “Hemoglobin Saturation” value ([3]; incubation 1 hr, normalized to 1.00 (DMSO 1.18)) of the same molecule?
A: 1.05

Q: And the “Hemoglobin Saturation” value ([3]; incubation 2 hr, normalized to 1.00 (DMSO 1.18))?
A: 1.00

Q: And the “Hemoglobin Saturation” value ([3]; incubation 3 hr, normalized to 1.00 (DMSO 1.30))?
A: 1.02

Q: What about the “Max − Min (%), Mean” value ([4]; mean of replicates) of the same molecule?
A: < 100%

Q: And the “Max − Min (%)” value ([4]; single replicates)?
A: <125% and <150% and <100% and <50%
